{"source": "patent US12123023B2", "about": "“Methods for generating stem cell-derived β cells and methods of use thereof” (President and Fellows of Harvard College, priority 2014, dated 2024)", "test_system": "SC-β cells", "test": "FACS analysis of marker expression in cells differentiated to SC-β cells (end of Step 6, versus DMSO control)", "type": "cell-based, human", "source_text": "FIG. 4A is a schematic illustrating an exemplary method for generating SC-β cells according to an embodiment of the present invention, e.g., by contacting a cell population directed to differentiate to SC-β cells under conditions that promote cell clustering with an agent that decreases the level and/or activity of rho-associated protein kinase (Rock inhibitor), a TGF-β superfamily member (e.g., Activin A), and a protein kinase inhibitor (e.g., staurosporine) during the steps indicated.\nThe SC-β cells generated in accordance with the methods of the present invention can be used in various assays to identify novel drugs that improve β cell function, survival, or proliferation, cell therapies (e.g., for treating diabetes and/or metabolic disorders), and in the construction of artificial islets and/or an artificial pancreas.", "key": {"[1]": {"settings": "S4 cells contacted during Step 5, cells at end of Step 6, versus control (DMSO)"}}}
{"smiles": "CN[C@@H]1C[C@H]2O[C@@](C)([C@@H]1OC)n1c3ccccc3c3c4c(c5c6ccccc6n2c5c31)C(=O)NC4", "note": "[staurosporine]", "values": [{"measurement": "endocrine population purity (FACS)", "setting": "[1]", "result": "near pure endocrine population"}, {"measurement": "percentage of NKX6.1+, C-Peptide+ cells (FACS)", "setting": "[1]", "result": "higher percentage of NKX6.1+, C-Peptide+ cells"}, {"measurement": "marker expression at differentiation stages S4, S5, S6 (FACS)", "setting": "S4 cells contacted during Step 5 together with the Rock inhibitor, in the absence of Activin A", "result": "maintain marker expression"}]}
